Consider four compounds from PubChem BioAssay AID1259407 (Chemical Carcinogenesis Research Information System (CCRIS), 2018).

Calls of active or inactive are those of the source. No rule for the calls is given here.

This series has as its system CCRIS mutagenicity, Ames/micronucleus/aberration tests. Put plainly: CCRIS mutagenicity studies.
Setting [1] is: Test System: AMES SALMONELLA TYPHIMURIUM, Strain/Indicator: TA98, Metabolic Activation: NONE, Method: STANDARD PLATE.

Take `NCCNc1cccc2ccccc12`: the mutagenic call reads like this: (Test System: CHINESE HAMSTER OVARY, Strain/Indicator: CHO-K1-BH4 (HGPRT)/6-THIOGUANINE, Metabolic Activation: NONE) “inactive; negative”; (Test System: CHINESE HAMSTER OVARY, Strain/Indicator: CHO-K1-BH4 (HGPRT)/6-THIOGUANINE, Metabolic Activation: S-9) “inactive; negative”.

`[N-]=[N+]=Nc1nc2ccccc2[nH]1`: the mutagenic call under setting [1] was “active; positive”.

For the compound `CC[C@@]1(O)C[C@H](O[C@H]2C[C@H](N(C)C)[C@H](O[C@H]3C[C@H](O)[C@H](O[C@H]4CCC(=O)[C@H](C)O4)[C@H](C)O3)[C@H](C)O2)c2c(cc3c(c2O)C(=O)c2c(O)cccc2C3=O)[C@H]1C(=O)OC`, the mutagenic call reads like this: (Test System: AMES SALMONELLA TYPHIMURIUM, Strain/Indicator: TA97, Metabolic Activation: NONE, Method: STANDARD PLATE) “inactive; negative”; under setting [1], “inactive; negative”; (Test System: AMES SALMONELLA TYPHIMURIUM, Strain/Indicator: TA98, Metabolic Activation: RAT, LIVER, S-9, AROCLOR 1254, Method: STANDARD PLATE) “inactive; negative”; (Test System: AMES SALMONELLA TYPHIMURIUM, Strain/Indicator: TA100, Metabolic Activation: NONE, Method: STANDARD PLATE) “inactive; negative”; (Test System: AMES SALMONELLA TYPHIMURIUM, Strain/Indicator: TA104, Metabolic Activation: NONE, Method: STANDARD PLATE) “active; positive”; (Test System: AMES SALMONELLA TYPHIMURIUM, Strain/Indicator: TA1537, Metabolic Activation: NONE, Method: STANDARD PLATE) “inactive; negative”. Moreover, the mutagenic call reads like this: (Test System: AMES SALMONELLA TYPHIMURIUM, Strain/Indicator: TA1538, Metabolic Activation: NONE, Method: STANDARD PLATE) “inactive; negative”; (Test System: AMES SALMONELLA TYPHIMURIUM, Strain/Indicator: TA2637, Metabolic Activation: NONE, Method: STANDARD PLATE) “active; positive”; (Test System: E. COLI, Strain/Indicator: WP2 (HCR), Metabolic Activation: NONE, Method: STANDARD PLATE) “inactive; negative”.

With `Nc1nc(N)nc(-c2ccccc2)n1`, the mutagenic call reads like this: (Test System: AMES SALMONELLA TYPHIMURIUM, Strain/Indicator: TA98, Metabolic Activation: NONE, Method: PREINCUBATION) “inactive; negative”; (Test System: AMES SALMONELLA TYPHIMURIUM, Strain/Indicator: TA98, Metabolic Activation: RAT, LIVER, S-9, PHENOBARBITAL AND BETA-NAPHTHOFLAVONE, Method: PREINCUBATION) “inactive; negative”; (Test System: AMES SALMONELLA TYPHIMURIUM, Strain/Indicator: TA100, Metabolic Activation: NONE, Method: PREINCUBATION) “inactive; negative”; (Test System: AMES SALMONELLA TYPHIMURIUM, Strain/Indicator: TA100, Metabolic Activation: RAT, LIVER, S-9, PHENOBARBITAL AND BETA-NAPHTHOFLAVONE, Method: PREINCUBATION) “inactive; negative”; (Test System: AMES SALMONELLA TYPHIMURIUM, Strain/Indicator: TA102, Metabolic Activation: NONE, Method: PREINCUBATION) “inactive; negative”; (Test System: AMES SALMONELLA TYPHIMURIUM, Strain/Indicator: TA102, Metabolic Activation: RAT, LIVER, S-9, PHENOBARBITAL AND BETA-NAPHTHOFLAVONE, Method: PREINCUBATION) “inactive; negative”. Further, the mutagenic call (Test System: AMES SALMONELLA TYPHIMURIUM, Strain/Indicator: TA104, Metabolic Activation: NONE, Method: PREINCUBATION) is “inactive; negative”; the mutagenic call (Test System: AMES SALMONELLA TYPHIMURIUM, Strain/Indicator: TA104, Metabolic Activation: RAT, LIVER, S-9, PHENOBARBITAL AND BETA-NAPHTHOFLAVONE, Method: PREINCUBATION) was “inactive; negative”; the mutagenic call (Test System: AMES SALMONELLA TYPHIMURIUM, Strain/Indicator: TA1535, Metabolic Activation: NONE, Method: PREINCUBATION) is “inactive; negative”; the mutagenic call (Test System: AMES SALMONELLA TYPHIMURIUM, Strain/Indicator: TA1535, Metabolic Activation: RAT, LIVER, S-9, PHENOBARBITAL AND BETA-NAPHTHOFLAVONE, Method: PREINCUBATION) is “inactive; negative”; the mutagenic call (Test System: AMES SALMONELLA TYPHIMURIUM, Strain/Indicator: TA1537, Metabolic Activation: NONE, Method: PREINCUBATION) is “inactive; negative”; the mutagenic call (Test System: AMES SALMONELLA TYPHIMURIUM, Strain/Indicator: TA1537, Metabolic Activation: RAT, LIVER, S-9, SODIUM PHENOBARBITAL AND 5,6-BENZOFLAVONE, Method: PREINCUBATION) was “inactive; negative”. For the same compound, the mutagenic call is “inactive; negative” (Test System: E. COLI, Strain/Indicator: WP2UVRA/PKM101, Metabolic Activation: NONE, Method: PREINCUBATION); “inactive; negative” (Test System: E. COLI, Strain/Indicator: WP2UVRA/PKM101, Metabolic Activation: RAT, LIVER, S-9, SODIUM PHENOBARBITAL AND 5,6-BENZOFLAVONE, Method: PREINCUBATION); “inactive; negative” (Test System: E. COLI, Strain/Indicator: WP2UVRA, Metabolic Activation: NONE, Method: PREINCUBATION); “inactive; negative” (Test System: E. COLI, Strain/Indicator: WP2UVRA, Metabolic Activation: RAT, LIVER, S-9, PHENOBARBITAL AND BETA-NAPHTHOFLAVONE, Method: PREINCUBATION).
